According to PubChem BioAssay AID1259407 (Chemical Carcinogenesis Research Information System (CCRIS), 2018):
Calls of active or inactive are those of the source. The rule behind the calls is not given here.

Tested on: CCRIS mutagenicity, Ames/micronucleus/aberration tests
Assay: CCRIS mutagenicity studies
[1] = Test System: AMES SALMONELLA TYPHIMURIUM, Strain/Indicator: TA98, Metabolic Activation: NONE, Method: STANDARD PLATE
[2] = Test System: AMES SALMONELLA TYPHIMURIUM, Strain/Indicator: TA100, Metabolic Activation: NONE, Method: STANDARD PLATE
[3] = Test System: AMES SALMONELLA TYPHIMURIUM, Strain/Indicator: TA1535, Metabolic Activation: NONE, Method: STANDARD PLATE
[4] = Test System: AMES SALMONELLA TYPHIMURIUM, Strain/Indicator: TA98, Metabolic Activation: RAT, LIVER, S-9, AROCLOR 1254, Method: STANDARD PLATE
[5] = Test System: AMES SALMONELLA TYPHIMURIUM, Strain/Indicator: TA100, Metabolic Activation: RAT, LIVER, S-9, AROCLOR 1254, Method: STANDARD PLATE

With `C=CC(=O)OCCOC(=O)C=C` the mutagenic call (Test System: AMES SALMONELLA TYPHIMURIUM, Strain/Indicator: TA98, Metabolic Activation: HAMSTER, LIVER, S-9, AROCLOR 1254, Method: STANDARD PLATE) was “inactive; negative”, the mutagenic call [1] was “inactive; negative” and the mutagenic call (Test System: AMES SALMONELLA TYPHIMURIUM, Strain/Indicator: TA98, Metabolic Activation: RAT, LIVER, S-9, SODIUM PHENOBARBITAL, Method: STANDARD PLATE) was “inactive; negative”. For the same compound, the mutagenic call (Test System: AMES SALMONELLA TYPHIMURIUM, Strain/Indicator: TA100, Metabolic Activation: HAMSTER, LIVER, S-9, AROCLOR 1254, Method: STANDARD PLATE) was “inactive; negative”, the mutagenic call [2] was “inactive; negative” and the mutagenic call (Test System: AMES SALMONELLA TYPHIMURIUM, Strain/Indicator: TA100, Metabolic Activation: RAT, LIVER, S-9, SODIUM PHENOBARBITAL, Method: STANDARD PLATE) was “inactive; negative”. The mutagenic call (Test System: AMES SALMONELLA TYPHIMURIUM, Strain/Indicator: TA1535, Metabolic Activation: HAMSTER, LIVER, S-9, AROCLOR 1254, Method: STANDARD PLATE) was “inactive; negative”, the mutagenic call [3] was “inactive; negative” and the mutagenic call (Test System: AMES SALMONELLA TYPHIMURIUM, Strain/Indicator: TA1535, Metabolic Activation: RAT, LIVER, S-9, SODIUM PHENOBARBITAL, Method: STANDARD PLATE) was “inactive; negative”. For the same compound, the mutagenic call (Test System: AMES SALMONELLA TYPHIMURIUM, Strain/Indicator: TA1537, Metabolic Activation: HAMSTER, LIVER, S-9, AROCLOR 1254, Method: STANDARD PLATE) was “inactive; negative”, the mutagenic call (Test System: AMES SALMONELLA TYPHIMURIUM, Strain/Indicator: TA1537, Metabolic Activation: NONE, Method: STANDARD PLATE) was “inactive; negative” and the mutagenic call (Test System: AMES SALMONELLA TYPHIMURIUM, Strain/Indicator: TA1537, Metabolic Activation: RAT, LIVER, S-9, SODIUM PHENOBARBITAL, Method: STANDARD PLATE) was “inactive; negative”. The mutagenic call (Test System: AMES SALMONELLA TYPHIMURIUM, Strain/Indicator: TA1538, Metabolic Activation: NONE, Method: STANDARD PLATE) was “inactive; negative”, the mutagenic call (Test System: AMES SALMONELLA TYPHIMURIUM, Strain/Indicator: TA1538, Metabolic Activation: RAT, LIVER, S-9, AROCLOR 1254, Method: STANDARD PLATE) was “inactive; negative” and the mutagenic call (Test System: AMES SALMONELLA TYPHIMURIUM, Strain/Indicator: TA1538, Metabolic Activation: RAT, LIVER, S-9, SODIUM PHENOBARBITAL, Method: STANDARD PLATE) was “inactive; negative”.

For `C=C(C)c1ccc(C)c2ccc(C=O)c-2c1`, the mutagenic call [1] was “inactive; negative”, the mutagenic call [4] was “active; positive” and the mutagenic call [2] was “inactive; negative”. The mutagenic call [5] was “active; positive”.

`COc1cccc2c1C(=O)c1c(O)c3c(c(O)c1C2=O)CC(O)(C(C)=O)CC3OC1CC(N(C)C)C(O)C(C)O1` (stereo not drawn) was tested, and the mutagenic call (Test System: CHINESE HAMSTER V-79, Strain/Indicator: V-79/8-AZAGUANINE, Metabolic Activation: RAT, HEPATOCYTES) was “inactive; negative” and the mutagenic call (Test System: UDS RAT HEPATOCYTES, Strain/Indicator: THY INCORP, Metabolic Activation: NONE, Method: AUTOMATIC COLONY COUNTER) was “active; positive”.

For `C[C@@H]1C[C@@H]2c3cccc4[nH]cc(c34)C[C@H]2N(C)C1`, the mutagenic call [5] was “active; positive”.

`N#CC(Br)Br` was tested, and the mutagenic call (End Point: In vivo micronucleus, Test System: Peripheral blood normochromatic erythrocytes, Species: Mouse, Strain/Sex: B6C3F1/ Female, Route: Oral) was “inactive; negative”, the mutagenic call (End Point: In vivo micronucleus, Test System: Peripheral blood normochromatic erythrocytes, Species: Mouse, Strain/Sex: B6C3F1/ Male, Route: Oral) was “inactive; negative” and the mutagenic call [1] was “inactive; negative”. For the same compound, the mutagenic call [4] was “inactive; negative”, the mutagenic call (Test System: AMES SALMONELLA TYPHIMURIUM, Strain/Indicator: TA100, Metabolic Activation: NONE, Method: FLUCTUATION TEST) was “inactive; negative” and the mutagenic call [2] was “inactive; negative”. The mutagenic call (Test System: AMES SALMONELLA TYPHIMURIUM, Strain/Indicator: TA100, Metabolic Activation: RAT, LIVER, S-9, AROCLOR 1254, Method: FLUCTUATION TEST) was “inactive; negative”, the mutagenic call [5] was “inactive; negative” and the mutagenic call [3] was “inactive; negative”. For the same compound, the mutagenic call (Test System: AMES SALMONELLA TYPHIMURIUM, Strain/Indicator: TA1535, Metabolic Activation: RAT, LIVER, S-9, AROCLOR 1254, Method: STANDARD PLATE) was “inactive; negative”, the mutagenic call (Test System: Ames Salmonella typhimurium, Strain/Indicator: TA97, Metabolic Activation: Hamster, Liver, S-9, Aroclor 1254 (10%), Method: Preincubation) was “active; positive” and the mutagenic call (Test System: Ames Salmonella typhimurium, Strain/Indicator: TA97, Metabolic Activation: Hamster, Liver, S-9, Aroclor 1254 (30%), Method: Preincubation) was “inactive; negative”. For the same compound, the mutagenic call (Test System: Ames Salmonella typhimurium, Strain/Indicator: TA97, Metabolic Activation: None, Method: Preincubation) was “active; positive”, the mutagenic call (Test System: Ames Salmonella typhimurium, Strain/Indicator: TA97, Metabolic Activation: Rat, Liver, S-9, Aroclor 1254 (10%), Method: Preincubation) was “active; positive” and the mutagenic call (Test System: Ames Salmonella typhimurium, Strain/Indicator: TA97, Metabolic Activation: Rat, Liver, S-9, Aroclor 1254 (30%), Method: Preincubation) was “inactive; negative”. The mutagenic call (Test System: Ames Salmonella typhimurium, Strain/Indicator: TA98, Metabolic Activation: Hamster, Liver, S-9, Aroclor 1254 (10%), Method: Preincubation) was “inactive; negative”, the mutagenic call (Test System: Ames Salmonella typhimurium, Strain/Indicator: TA98, Metabolic Activation: Hamster, Liver, S-9, Aroclor 1254 (10 and 30%), Method: Preincubation) was “inactive; negative” and the mutagenic call (Test System: Ames Salmonella typhimurium, Strain/Indicator: TA98, Metabolic Activation: None, Method: Preincubation) was “inactive; negative”. For the same compound, the mutagenic call (Test System: Ames Salmonella typhimurium, Strain/Indicator: TA98, Metabolic Activation: Rat, Liver, S-9, Aroclor 1254 (10%), Method: Preincubation) was “inactive; negative”, the mutagenic call (Test System: Ames Salmonella typhimurium, Strain/Indicator: TA98, Metabolic Activation: Rat, Liver, S-9, Aroclor 1254 (10 and 30%), Method: Preincubation) was “inactive; negative” and the mutagenic call (Test System: Ames Salmonella typhimurium, Strain/Indicator: TA100, Metabolic Activation: Hamster, Liver, S-9, Aroclor 1254 (30%), Method: Preincubation) was “inactive; negative”. The mutagenic call (Test System: Ames Salmonella typhimurium, Strain/Indicator: TA100, Metabolic Activation: Rat, Liver, S-9, Aroclor 1254 (10%), Method: Preincubation) was “inactive; negative”, the mutagenic call (Test System: Ames Salmonella typhimurium, Strain/Indicator: TA1535, Metabolic Activation: None, Method: Preincubation) was “inactive; negative” and the mutagenic call (Test System: Ames Salmonella typhimurium, Strain/Indicator: TA1535, Metabolic Activation: Rat, Liver, S-9, Aroclor 1254 (30%), Method: Preincubation) was “inactive; negative”. For the same compound, the mutagenic call (Test System: Ames Salmonella typhimurium, Strain/Indicator: TA1537, Metabolic Activation: Hamster, Liver, S-9, Aroclor 1254 (30%), Method: Preincubation) was “inactive; negative”, the mutagenic call (Test System: Ames Salmonella typhimurium, Strain/Indicator: TA1537, Metabolic Activation: None, Method: Preincubation) was “inactive; negative” and the mutagenic call (Test System: Ames Salmonella typhimurium, Strain/Indicator: TA1537, Metabolic Activation: Rat, Liver, S-9, Aroclor 1254 (10%), Method: Preincubation) was “inactive; negative”. The mutagenic call (Test System: Ames Salmonella typhimurium, Strain/Indicator: TA1538, Metabolic Activation: None, Method: Preincubation) was “inactive; negative”, the mutagenic call (Test System: E. coli, Strain/Indicator: WPM uvrA/pKM101, Metabolic Activation: Hamster, Liver, S-9, Aroclor 1254 (10%), Method: Preincubation) was “active; positive” and the mutagenic call (Test System: E. coli, Strain/Indicator: WPM uvrA/pKM101, Metabolic Activation: None, Method: Preincubation) was “inactive; negative”. The mutagenic call (Test System: E. coli, Strain/Indicator: WPM uvrA/pKM101, Metabolic Activation: Rat, Liver, S-9, Aroclor 1254 (10%), Method: Preincubation) was “inactive; negative”.
